Results on one sequence are retold here after patent US20240209043A1, “NON-ANTIBODY BINDING PEPTIDES AND THEIR ANALOGS DUAL-TARGETING TO PD-1 AND PD-L1, AND USES THEREOF” (ORAL SUBSIDIARY SUN YAT-SEN UNIVERSITY HOSPITAL, priority 2021, published 2024).

The test system of data set [1] is PD-1/PD-L1 interaction in Jurkat T / Cal27 co-culture. The data set can be described thus: Co-culture of stimulated Jurkat T cells and stimulated Cal27 cells, IL-2 ELISA. It counts as cell-based, Human. The conditions noted are these: 10 μM peptide or 2 ug/ml antibody, 24 hours co-culture, compared with the control group. How it is done:
50 ng/ml of Phorbol 12-myristate 13-acetate (PMA) and 1 ug/ml of Ionomycin Calcium Salt (Ionomycin) were used for stimulating Jurkat T cells for 24 hours, and 500 U/ml of IFN-γ was used for stimulating CAL27 cells for 48 hours. The stimulated Jurkat T cells were incubated with 10 μM of nABP284, 10 μM of nABP386, 10 μM of nABP486, and 2 ug/ml of PD-1 functional monoclonal antibody (J116, eBioscience|ThermoFisher Science) for 1 hour in advance at 37° C., respectively, and the stimulated CAL27 cells were added to the 96-well plate at 1×10^4 cells per well. When CAL27 cells were immobilized, a supernate was removed. The Jurkat T cells at a ratio of 4 to 1 and 200 ul of medium were added to each well. After these cells were co-cultured for 24 hours, a supernate was collected and analyzed by ELISA kit (88-7025-86, Thermo Fisher Scientific) to measure the amount of IL-2 in the supernate.

Data set [2] has as its target T1, PD-1 (Homo sapiens, UniProt Q15116). The data set can be described thus: SPR affinity assay on recombinant Human PD-1 protein (Biocore T100, CM5 chip). Type of data set: binding. Also on record: purchased Acro Biosystems PD1-H5221. Here is the method:
The affinity of the peptides was tested with Biocore T100 through surface plasmon resonance (SPR) technique. […] Finally, the affinities (Kd-value) of the peptides were calculated by fitting curves in the sensor diagram in Biacore software.
The binding affinities (Kd-value) of nABP386, nABP486, and nABP786 to PD-1 were detected by Surface plasma resonance (SPR), respectively.
Target sequence in this assay (Q15116 25-167 limits assumed): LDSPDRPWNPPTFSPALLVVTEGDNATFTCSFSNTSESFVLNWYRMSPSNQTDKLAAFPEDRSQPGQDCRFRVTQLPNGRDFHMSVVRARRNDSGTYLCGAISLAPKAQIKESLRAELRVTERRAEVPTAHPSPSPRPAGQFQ

For another data set, the system named is Cal27 cells. The data set can be described thus: CCK-8 cytotoxicity assay on Cal27 cells. It counts as cell-based, Human. The conditions noted are these: CCK-8, 1-64 μM, 24 hours. Here is the method:
(§1) Cytotoxicity assay was performed and measured with Cell Counting Kit-8 (CCK-8, Dujindo, Japan). Jurkat cells (each well with 4000 cells), PBMCs (each well with 4000 cells) and Cal27 cells (each well with 2000 cells) were added into a 96-well plate and cultured for 24 hours, respectively. nABP284, nABP386 and nABP486 in a concentration gradient of 1 μM, 2 μM, 3 μM, 4 μM, 8 μM, 16 μM, 32 μM and 64 μM were added into the medium and the cells were cultured for 24 hours in a cell incubator. After that, 10 μl of CCK-8 solution was added to each well and the cells were incubated for 2 hours. VictorX5 Multilabel plate reader (PerkinElmer, Singapore) was used for measuring absorbance of each well at 450 nm. Cell viability (%) was calculated by the following formula:
(§2) Cell viability (%)=[(Sample A−Background A)/(Control A−Blank A)×100%. • Wherein Sample A denotes the absorbance of the experimental well (including cells, CCK-8 solution, medium and peptide diluent) • Background A denotes the absorbance of the background hole (including CCK-8 solution, medium, and peptide diluent without cells); • Control A denotes the absorbance of the control hole (including cells, CCK-8 solution and medium without peptide diluent); and • Blank A denotes the absorbance of the blank hole (including CCK-8 solution and medium without cells and peptide diluent).

In data set [3] the target is T2, PD-1 expressed on the surface of stimulated Jurkat T cells (Homo sapiens, UniProt Q15116).
T2 construct: when Jurkat cells were stimulated by PMA, they highly expressed PD-1; endogenous in cells; host or cells: Jurkat T cells stimulated with PMA and ionomycin
The experiment in a line: Blocking capacity: competitive binding to PD-1 on stimulated Jurkat T cells (immunofluorescence, mean fluorescence intensity). It counts as cell-based. The following applies: 1 hour incubation, equal concentration. How it is done: Experiments were divided into an experimental group and a control group. In the experimental group, Jurkat T cells were stimulated for 24 hours with 50 ng/ml of Phorbol 12-myristate 13-acetate (PMA) and 1 ug/ml of Ionomycin Calcium Salt (Ionomycin) to express PD-1, while in the control group, Jurkat T cells were not stimulated and thus hardly expressed any PD-1. For immunofluorescence analysis, Jurkat T cells (1×10^6) were obtained and blocked with 2% BSA for 1 hour at room temperature to decrease specific binding. After blocking, the cells were collected and incubated with 10 μM of peptides stained with FITC (green fluorescence) for 1 hour at 37° C. PBS was used for washing the cells three times and 4% paraformaldehyde was used for immobilization. […] PBS was used for washing three times again and anti-fade mounting medium was used for preserving fluorescence. Further, fluorescence confocal microscope images were analyzed by using Image J software to evaluate the ability of polypeptides to compete the binding sites of PD-1. […] Subsequently, the cells were incubated with 10 μM or 40 μM of peptides stained with FITC (green fluorescence) for 1 hour at 4° C. PBS was used for washing three times, and finally 500 ul of PBS was used for resuspending the cells, which were then transferred to flow tubes and analyzed by flow cytometry (CytoFLEX, BECK MANCOULTER, America). […]

The target of data set [4] is T3, recombinant Human PD-L1 protein binding to PD-1-expressing Jurkat T cells (Homo sapiens, UniProt Q15116).
T3 construct: when Jurkat cells were stimulated by PMA, they highly expressed PD-1; host or cells: Jurkat T cells stimulated with PMA and ionomycin
The experiment in a line: Neutralization of recombinant Human PD-L1 protein binding to PD-1-expressing Jurkat T cells (flow cytometry). The following applies: peptide 0.4-40 μM mixed with PD-L1 protein, stimulated Jurkat T cells. It counts as cell-based. How it is done:
The Jurkat T cells were divided into two groups, an experimental group and a control group, wherein in the experimental group, 50 ng/ml of Phorbol 12-myristate 13-acetate (PAM) and 1 ug/ml of Ionomycin Calcium Salt (Ionomycin) were used to stimulate the cells, and in the control group, Jurkat T cells were unstimulated. The cells (5×10^5) were collected in each tube, and washed once with FACS buffer (PBS with 2% BSA). Then recombinant Human PD-L1 protein (PD1-H82F3, Acro Biosystems) was diluted to 4 ug/ml with FACS, and PD-1 binding peptides were diluted with FACS to a series of concentrations of 0.4 μM, 1.33 μM, 4 μM, 13.3 μM, and 40 μM. Subsequently, the two working solutions (PD-L1 protein diluent and peptide diluent) were mixed in an equal volume and 100 ul of mixed solutions at different concentrations were added to the centrifuge tubes together with the cells, incubated for 1 hour at 4° C. FACS buffer was used for washing the cells three times, and 0.12 ug/ml of APC Streptavidin (405207, Biolegend) was added to each tube and the incubation was performed for 1 hour at 4° C., and then the cells were washed three times with FACS buffer again, and 500 μl of PBS was added to resuspend the cells, which were further transferred to flow tubes and analyzed by flow cytometry.
Further, neutralization capacity of nABP284 and new peptides to recombinant Human PD-L1 protein were studied. […]

Data set [5] has as its target T4, PD-1 on the surface of Jurkat T cells (Homo sapiens, UniProt Q15116).
T4 construct: when Jurkat cells were stimulated by PMA, they highly expressed PD-1; endogenous in cells; host or cells: Jurkat T cells stimulated with PMA and ionomycin
The experiment in a line: Immunofluorescence and flow cytometry analysis of specific binding of FITC-stained peptides to Jurkat T cells. Type of data set: cell-based. The conditions noted are these: flow cytometry; 10 μM or 40 μM FITC peptide. Here is the method:
Experiments were divided into an experimental group and a control group. In the experimental group, Jurkat T cells were stimulated for 24 hours with 50 ng/ml of Phorbol 12-myristate 13-acetate (PMA) and 1 ug/ml of Ionomycin Calcium Salt (Ionomycin) to express PD-1, while in the control group, Jurkat T cells were not stimulated and thus hardly expressed any PD-1. For immunofluorescence analysis, Jurkat T cells (1×10^6) were obtained and blocked with 2% BSA for 1 hour at room temperature to decrease specific binding. After blocking, the cells were collected and incubated with 10 μM of peptides stained with FITC (green fluorescence) for 1 hour at 37° C. PBS was used for washing the cells three times and 4% paraformaldehyde was used for immobilization. […] PBS was used for washing three times again and anti-fade mounting medium was used for preserving fluorescence. Further, fluorescence confocal microscope images were analyzed by using Image J software to evaluate the ability of polypeptides to compete the binding sites of PD-1. […] Subsequently, the cells were incubated with 10 μM or 40 μM of peptides stained with FITC (green fluorescence) for 1 hour at 4° C. PBS was used for washing three times, and finally 500 ul of PBS was used for resuspending the cells, which were then transferred to flow tubes and analyzed by flow cytometry (CytoFLEX, BECK MANCOULTER, America).

Data set [6] deals with T1, PD-1. The conditions noted are these: in vitro, prior patent; cited from earlier work.
Target sequence in this assay (Q15116 25-288): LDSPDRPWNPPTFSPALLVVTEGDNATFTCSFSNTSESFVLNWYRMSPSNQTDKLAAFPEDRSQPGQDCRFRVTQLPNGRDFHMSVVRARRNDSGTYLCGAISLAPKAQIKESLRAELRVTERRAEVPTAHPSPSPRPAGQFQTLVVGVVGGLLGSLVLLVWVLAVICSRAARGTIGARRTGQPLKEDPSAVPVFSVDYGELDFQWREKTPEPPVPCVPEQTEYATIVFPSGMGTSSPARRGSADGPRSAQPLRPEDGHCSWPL
For a further data set, the system named is Jurkat T cells. The data set can be described thus: CCK-8 cytotoxicity assay on Jurkat T cells. It counts as cell-based, Human. The following applies: CCK-8, 1-64 μM, 24 hours. Here is the method:
as §1, §2

A further data set has as its system tumor. The following applies: prior patent; cited from earlier work.

Where no end group is shown, it is not given here.

T2 sequence (Q15116 25-288): as above
T3 sequence (Q15116 25-288): as above
T4 sequence (Q15116 25-288): as above

As to “SRLKEIANSPTQFWRMVARNTLGGAKQSLNIEHARL [nABP284]”, in data set [1], the “secretion level of IL-2 in the co-culture system” value is “significantly increased”. For the same sequence, the “binding affinity to PD-1, in words” value on PD-1 [2] was “can specifically bind to PD-1 with moderate affinity”. In addition, in the data set on Cal27 cells, the “direct cytotoxicity to Cal27 cells” value is “no directly cytotoxicity”. Also, the “blocking capacity on PD-1 (mean fluorescence intensity)” value in [3] is listed as “have a blocking capacity on PD-1 expressed on the surface of stimulated Jurkat T cells”. In addition, the “neutralization capacity to recombinant Human PD-L1 protein” value in data set [4] is “can be inhibited”. The “binding rate to PD-1-expressing Jurkat T cells” value in data set [5] is on record as “may increase with its increasing concentration”. At PD-1 [6], the “blocking of PD-L1 ligand binding to PD-1” value is “can block the binding of PD-L1 ligand to PD-1”; the “secretion of IL-2 and tumor cytotoxicity of T lymphocytes” value is “enhance the secretion of interleukin 2 (IL-2) and tumor cytotoxicity of T lymphocytes”. For the same sequence, the “direct cytotoxicity to Jurkat T cells” value in the data set on Jurkat T cells is on record as “no directly cytotoxicity”. Also, the “tumor growth in mice” value in the data set with tumor is “inhibit tumor growth in mice”.
